Results on nine molecules are retold here after patent US20230094471A1, “CYTOTOXIC BIS-BENZODIAZEPINE DERIVATIVES AND CONJUGATES THEREOF WITH CELL-BINDING AGENTS FOR INHIBITING ABNORMAL CELL GROWTH OR FOR TREATING PROLIFERATIVE DISEASES” (priority 2019, published 2023).

One series concerns KB (cervical carcinoma). The series can be described thus: In vitro cytotoxicity assay (WST-8), KB cells. Conditions: Homo sapiens, 120 h, read-out: IC50 values for free cytotoxic compounds, KB. As for the experimental part:
(§1) The following cell lines were used for the studies: KB (cervical carcinoma, ATCC), NCI-H2110 (Non Small Cell Lung Carcinoma, ATCC), Namalwa (Burkitt's lymphoma, ATCC), and T47D (breast epithelial cancer, ATCC). The cells were maintained and plated for the cytotox experiments in media recommended by the manufacturers. Cells were plated in the 96-well flat bottom plates at a seeding density of 1,000 cells per well (KB, Namalwa) or 2,000 cell per well (NCI H2110, T47D). […] To determine specificity of cytotoxic activity of the conjugates an excess of unconjugated antibody was added to a separate set of diluted conjugates (+block samples, IC50 table). The plates were incubated at 37° C., 5% CO2 for either 4 days (T47D cells) or 5 days (KB, NCI H2110 cells). Alamar blue assay (Invitrogen) was used to determine viability of T47D cells, and WST-8 assay (Donjindo Molecular Technologies, Inc.) was applied for viability of KB, NCI H2110, Namalwa cells. The assays were performed in accordance with the manufacturer's protocols. Killing curves and IC50 were generated using a sigmoidal dose-response nonlinear regression curve fit (GraphPad Software Inc.).

Series [1] deals with Namalwa (Burkitt's lymphoma). The series can be described thus: In vitro cytotoxicity assay (WST-8), Namalwa cells. To be noted: read-out: IC50 values for free cytotoxic compounds, Namalwa. As for the experimental part:
as §1
Background: Tetrazolium dyes change colour on reduction, which living cells bring about.

The conditions of series [2]: Phase I clinical evaluation (Hochhauser et al., 2009); cited from earlier work.

For orientation: IC50 means the concentration needed to halve the response being measured. `COc1cc2c(cc1OCCCCCOc1cc3c(cc1OC)C(=O)N1Cc4ccccc4C[C@H]1CN3)N=C[C@@H]1Cc3ccccc3N1C2=O` [Compound 108]: the IC50 with KB (cervical carcinoma) came out at 50 pM; in series [1] it was 10 pM.

In the case of `COc1cc2c(cc1OCCCCCOc1cc3c(cc1OC)C(=O)N1c4ccccc4C[C@H]1CN3)N=C[C@@H]1Cc3ccccc3CN1C2=O` [Compound 123], the IC50 was determined as 3 pM with KB (cervical carcinoma) and 1 pM in series [1].

As for `COc1cc2c(cc1OCc1cccc(COc3cc4c(cc3OC)C(=O)N3c5ccccc5C[C@H]3CN4)c1)N=C[C@@H]1Cc3ccccc3N1C2=O` [Compound 150], the results for the IC50 (in the series on KB (cervical carcinoma); in series [1]) were 8 pM and 1 pM, respectively.

As to `COCCOCCOCCNc1cc(COc2cc3c(cc2OC)C(=O)N2c4ccccc4C[C@H]2C=N3)cc(COc2cc3c(cc2OC)C(=O)N2c4ccccc4C[C@H]2CN3)c1` [Compound 155], the IC50 was determined as 20 pM in the series with KB (cervical carcinoma) and 2 pM in series [1].

For the molecule `COC(=O)c1cc(COc2cc3c(cc2OC)C(=O)N2c4ccccc4C[C@H]2C=N3)cc(COc2cc3c(cc2OC)C(=O)N2c4ccccc4C[C@H]2CN3)c1` [Compound 157], the IC50 with KB (cervical carcinoma) stood at 3 pM; in series [1], 1 pM.

In the case of `COc1cc2c(cc1OCc1cccc(COc3cc4c(cc3OC)C(=O)N3c5ccccc5C[C@H]3CN4)n1)N=C[C@@H]1Cc3ccccc3N1C2=O` [Compound 159], the IC50 in the series with KB (cervical carcinoma) came out at 3 pM; in series [1], 1 pM.

As for `COc1cc2c(cc1OCCCOc1cc3c(cc1OC)C(=O)N1c4ccccc4C[C@H]1CN3)N=C[C@@H]1Cc3ccccc3N1C2=O` [Compound 161], the figures for the concentration for half-maximal inhibition (IC50) (in the series on KB (cervical carcinoma); in series [1]) were 250 pM and 30 pM, respectively.

Turning to `COc1cc2c(cc1OCCCCCOc1cc3c(cc1OC)C(=O)N1c4ccccc4C[C@H]1CN3)N=C[C@@H]1Cc3ccccc3N1C2=O` [Compound 162], the results for the IC50 (in the series on KB (cervical carcinoma); in series [1]) were 20 pM and 3 pM, respectively.

As for `C=C1C[C@H]2C=Nc3cc(OCCCOc4cc5c(cc4OC)C(=O)N4CC(=C)C[C@H]4C=N5)c(OC)cc3C(=O)N2C1` [SJG-136], in series [2], the maximum tolerated dose is on record as 45 μg/m^2.
